Source: US8283478B2, “Process for preparation of sulfamide derivatives” (Janssen Pharmaceutica NV, priority 2005, dated 2012)

Test system: CF-1 male albino mice (MES-induced seizure)
Assay: Maximal Electroshock Test (MES), anticonvulsant activity
Type: in vivo
Conditions: for MES @ 300 mpk: (number of mice with full body tonic extension prevented)/(total number of mice tested): 300 mpk oral
Procedure: Anticonvulsant activity was determined using the MES test, run according to the procedure described in detail below. Swinyard E A, Woodhead J H, White H S, Franklin M R. Experimental selection, quantification, and evaluation of anticonvulsants. In Levy R H, et al., eds. Antiepileptic Drugs. 3rd ed. New York: Raven Press, 1989:85-102
CF-1 male albino mice (25-35 g) were fasted for 16 hours before testing. Mice were randomly selected into control and test groups, with the animals dosed with vehicle or test compound, at varying concentrations, respectively. On the study date, at 30 minutes prior to shock, the mice were orally dosed with vehicle (0.5% methylcellulose) or test compound (100-300 mg/kg). Seizures were induced by trans-corneal electric shock using a 60-Hz alternating current, 50 mA, delivered for 0.2 sec. The mice in the test groups were subjected to electrical stimulus at time intervals between 15 minutes and 4 hours following administration of test compound. […] The test was complete when the entire course of the convulsion has been observed (typically, less than 1 minute after electrical stimulation), and the mice were then immediately euthanized by carbon dioxide inhalation.
Abolition of the full body tonic extensor component of the seizure was taken as the endpoint of the test. […] The ED50 value of the test compound (calculated when appropriate) was the calculated dose required to block the hind limb tonic-extensor component of the MES-induced seizure in 50% of the rodents tested. A probit analysis was used to calculate the ED50 and 95% fiducial limits (FL).
Representative compounds of the present invention were tested according to the procedure described above, with results as listed in Table 3 below. Results are listed as (number of mice with full body tonic extension prevented)/(total number of mice tested) (@ a given time).

[1] = 100 mpk oral, 0.5 h after dosing

SMILES | MES @ 100 mpk: (number of mice with full body tonic extension prevented)/(total number of mice tested) [1] | MES @ 100 mpk: (number of mice with full body tonic extension prevented)/(total number of mice tested) (100 mpk oral, 2 h after dosing) | MES @ 100 mpk: (number of mice with full body tonic extension prevented)/(total number of mice tested) (100 mpk oral, 4 h after dosing) | MES @ 300 mpk: (number of mice with full body tonic extension prevented)/(total number of mice tested) (0.5 hr after dosing) | MES @ 300 mpk: (number of mice with full body tonic extension prevented)/(total number of mice tested) (2 hr after dosing) | MES @ 300 mpk: (number of mice with full body tonic extension prevented)/(total number of mice tested) (4 hr after dosing) | MES @ 100 mpk (result in words) (100 mpk oral, time not stated)
NS(=O)(=O)NCc1csc2ccccc12 [Compound 1, N-(benzo[b]thien-3-ylmethyl)-sulfamide] | 1/5 (0.5 h) | 3/5 (2 h) | 2/5 (4 h) | – | – | – | –
NS(=O)(=O)NCc1csc2c(F)cccc12 [Compound 18, N-[(7-fluorobenzo[b]thien-3-yl)methyl]-sulfamide] | – | – | – | 0/3 (0.5 hr) | 2/3 (2 hr) | 0/3 (4 hr) | –
Cn1cc(CNS(N)(=O)=O)c2ccccc21 [Compound 7, N-[(1-methyl-1H-indol-3-yl)methyl]-sulfamide] | – | – | – | 5/5 (0.5 hr) | 0/5 (2 hr) | 0/5 (4 hr) | inactive
NS(=O)(=O)NCc1csc2ccc(Br)cc12 [Compound 15, N-[(5-bromobenzo[b]thien-3-yl)methyl]-sulfamide] | – | – | – | 0/3 (0.5 hr) | 0/3 (2 hr) | 1/3 (4 hr) | –
Cc1oc2ccccc2c1CNS(N)(=O)=O [Compound 13, N-[(2-methyl-3-benzofuranyl)methyl]-sulfamide] | 4/5 (0.5 h) | 0/5 (2 h) | 0/5 (4 h) | – | – | – | –
NS(=O)(=O)NCc1csc2cccc(Br)c12 [Compound 17, N-[(4-bromobenzo[b]thien-3-yl)methyl]-sulfamide] | – | – | – | 0/3 (0.5 hr) | 0/3 (2 hr) | 1/3 (4 hr) | –
